Measurements from patent US8512726B1, “Molecular gel-based control release devices for pheromones” (The United States of America, as represented by the …, priority 2010, dated 2013).

What was measured:
[1] = system: varroa (Varroa destructor); settings: at elevated levels, honey bee colonies; cited from earlier work
[2] = at 20 C; cited from earlier work
[3] = Biodegradation: mineralization in compost, respirometer; settings: room temperature (22° C.), compared to starch control
Protocol: The relative degradation rate of samples was determined using a respirometer (Micro-Oxymax System, Columbus Instruments, Columbus, Ohio). The respirometer CO2 sensor was calibrated with a CO2 standard gas (8,000 ppm). […] The analyzer was equipped with a thermoconductivity detector and was operated using helium gas.
Commercial compost was purchased locally and adjusted to 58% moisture (dry weight basis). The glass sample bottles (250 ml) were filled with 20.0 g compost and 0.30 g test sample that was gently mixed with the compost. The sample bottles were initially flushed with CO2-free air and sealed. Respirometry experiments were conducted at room temperature (22° C.) and CO2 concentration was read every 12 hr. Three replications were tested for each treatment and data were expressed in terms of percentage mineralization.

CCCCCC(C)=O [2-heptanone]
Control of parasitic mites [1]: controls parasitic mites
vapor pressure [2]: 0.48 kPa

mannitol dioctanoate [M8]
Mineralization rate (biodegradability) [3]: mineralized at nearly the same rate as the starch control
